From patent US20210261512A1, “NOVEL COMPOUNDS” (INFLAZOME LIMITED, priority 2018, published 2021)

Molecular target: NLRP3 (Homo sapiens, UniProt Q96P20)
Experiment: THP-1 cells pyroptosis assay
Format: cell-based
Parameters: Seed THP-1 cells (25,000 cells/well) containing 1.0 μg/ml LPS; host or cells: THP-1
Conditions: LPS 1.0 μg/ml, nigericin 5 μM, resazurin readout, 10 μM top dose (Example 2: top dose of 30 μM)
In short: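 Pyroptosis induced by 5 μM nigericin (1 h) in LPS-primed (1 μg/ml) THP-1 cells, 25,000/well in serum-free RPMI, after 3 h compound pre-treatment (8 points, 10 μM top unless stated). Surviving cells measured with 100 μM resazurin, Ex 560/Em 590; IC50 via variable-slope 4-parameter regression.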

Sequence of NLRP3 (Q96P20 whole entry): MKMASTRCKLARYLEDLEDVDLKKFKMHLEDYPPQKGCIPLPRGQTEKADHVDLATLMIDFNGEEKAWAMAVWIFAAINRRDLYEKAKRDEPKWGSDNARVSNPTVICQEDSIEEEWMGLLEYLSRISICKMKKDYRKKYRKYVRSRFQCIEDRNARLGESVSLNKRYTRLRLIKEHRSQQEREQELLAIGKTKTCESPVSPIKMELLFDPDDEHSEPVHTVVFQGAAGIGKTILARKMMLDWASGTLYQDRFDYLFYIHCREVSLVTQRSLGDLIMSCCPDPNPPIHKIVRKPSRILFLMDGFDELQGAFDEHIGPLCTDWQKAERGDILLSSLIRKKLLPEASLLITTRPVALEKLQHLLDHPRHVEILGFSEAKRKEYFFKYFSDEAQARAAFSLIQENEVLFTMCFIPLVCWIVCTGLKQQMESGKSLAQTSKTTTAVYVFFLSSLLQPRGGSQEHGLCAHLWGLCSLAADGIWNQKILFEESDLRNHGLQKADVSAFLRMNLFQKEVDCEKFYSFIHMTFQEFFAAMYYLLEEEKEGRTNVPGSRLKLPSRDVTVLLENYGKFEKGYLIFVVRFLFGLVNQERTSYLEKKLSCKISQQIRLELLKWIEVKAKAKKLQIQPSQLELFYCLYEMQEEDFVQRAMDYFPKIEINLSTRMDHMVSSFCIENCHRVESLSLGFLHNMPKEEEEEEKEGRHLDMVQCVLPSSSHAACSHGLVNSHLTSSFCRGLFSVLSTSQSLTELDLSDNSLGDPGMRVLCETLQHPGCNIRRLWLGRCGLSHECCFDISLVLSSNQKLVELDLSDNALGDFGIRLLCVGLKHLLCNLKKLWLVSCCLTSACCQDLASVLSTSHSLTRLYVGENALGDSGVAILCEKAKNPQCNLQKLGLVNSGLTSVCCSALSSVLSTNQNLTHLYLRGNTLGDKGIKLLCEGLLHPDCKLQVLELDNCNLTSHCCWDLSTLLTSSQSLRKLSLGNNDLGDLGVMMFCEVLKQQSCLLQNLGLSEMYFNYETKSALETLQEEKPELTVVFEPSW

O=C1CCCN1CCNS(=O)(=O)c1nnc(Nc2c3c(cc4c2CCC4)CCC3)[nH]1 [Example 114, 5-((1,2,3,5,6,7-hexahydro-s-indacen-4-yl)amino)-N-(2-(2-oxopyrrolidin-1-yl)ethyl)-4H-1,2,4-triazole-3-sulfonamide] and O=S(=O)(NCCN1CCOCC1)c1nnc(Nc2c3c(cc4c2CCC4)CCC3)[nH]1 [Example 129, 5-((1,2,3,5,6,7-hexahydro-s-indacen-4-yl)amino)-N-(2-morpholinoethyl)-4H-1,2,4-triazole-3-sulfonamide] cannot be ordered by IC50: at most 5 µM for the first, at most 5 µM for the second.

CC(=O)NCCNS(=O)(=O)c1nnc(Nc2c3c(cc4c2CCC4)CCC3)[nH]1 [Example 115, N-(2-(5-((1,2,3,5,6,7-hexahydro-s-indacen-4-yl)amino)-4H-1,2,4-triazole-3-sulfonamido)ethyl)acetamide] and CC(C)(O)CCNS(=O)(=O)c1nnc(Nc2c3c(cc4c2CCC4)CCC3)[nH]1 [Example 116, 5-((1,2,3,5,6,7-hexahydro-s-indacen-4-yl)amino)-N-(3-hydroxy-3-methylbutyl)-4H-1,2,4-triazole-3-sulfonamide] cannot be ordered by IC50: at most 5 µM for the first, at most 5 µM for the second.

O=C1CCC(CNS(=O)(=O)c2nnc(Nc3c4c(cc5c3CCC5)CCC4)[nH]2)N1 (stereo not shown) [Example 121, 5-((1,2,3,5,6,7-hexahydro-s-indacen-4-yl)amino)-N-((5-oxopyrrolidin-2-yl)methyl)-4H-1,2,4-triazole-3-sulfonamide] and O=S(=O)(c1nnc(Nc2c3c(cc4c2CCC4)CCC3)[nH]1)N1CCC(O)C1 (stereo not shown) [Example 123, 1-((5-((1,2,3,5,6,7-hexahydro-s-indacen-4-yl)amino)-4H-1,2,4-triazol-3-yl)sulfonyl)pyrrolidin-3-ol] cannot be ordered by IC50: at most 10 µM for the first, at most 5 µM for the second.

O=S(=O)(c1nnc(Nc2c3c(cc4c2CCC4)CCC3)[nH]1)N1CCC(N2CCOCC2)C1 (stereo not shown) [Example 127, N-(1,2,3,5,6,7-hexahydro-s-indacen-4-yl)-5-((3-morpholinopyrrolidin-1-yl)sulfonyl)-4H-1,2,4-triazol-3-amine] and CN1CCN(C2CCN(S(=O)(=O)c3nnc(Nc4c5c(cc6c4CCC6)CCC5)[nH]3)CC2)CC1 [Example 135, N-(1,2,3,5,6,7-hexahydro-s-indacen-4-yl)-5-((4-(4-methylpiperazin-1-yl)piperidin-1-yl)sulfonyl)-4H-1,2,4-triazol-3-amine] cannot be ordered by IC50: at most 5 µM for the first, at most 5 µM for the second.

CN1CCN(CCNS(=O)(=O)c2nnc(Nc3c4c(cc5c3CCC5)CCC4)[nH]2)CC1 [Example 131, 5-((1,2,3,5,6,7-hexahydro-s-indacen-4-yl)amino)-N-(2-(4-methylpiperazin-1-yl)ethyl)-4H-1,2,4-triazole-3-sulfonamide] and CN1CC2CCN(S(=O)(=O)c3nnc(Nc4c5c(cc6c4CCC6)CCC5)[nH]3)C2C1 (stereo not shown) [Example 142, N-(1,2,3,5,6,7-hexahydro-s-indacen-4-yl)-5-((5-methylhexahydropyrrolo[3,4-b]pyrrol-1 (2H)-yl)sulfonyl)-4H-1,2,4-triazol-3-amine] cannot be ordered by IC50: at most 5 µM for the first, at most 5 µM for the second.

O=S(=O)(NCCc1ccccc1)c1nnc(Nc2c3c(cc4c2CCC4)CCC3)[nH]1 [Example 134, 5-((1,2,3,5,6,7-hexahydro-s-indacen-4-yl)amino)-N-phenethyl-4H-1,2,4-triazole-3-sulfonamide] and O=S(=O)(c1ccccn1)c1nnc(Nc2c3c(cc4c2CCC4)CCC3)[nH]1 [Example 170, N-(1,2,3,5,6,7-hexahydro-s-indacen-4-yl)-5-(pyridin-2-ylsulfonyl)-4H-1,2,4-triazol-5-amine] cannot be ordered by IC50: at most 5 µM for the first, at most 1 µM for the second.

CNC(=O)C1CCN(S(=O)(=O)c2nnc(Nc3c4c(cc5c3CCC5)CCC4)[nH]2)C1 (stereo not shown) [Example 140, 1-((5-((1,2,3,5,6,7-hexahydro-s-indacen-4-yl)amino)-4H-1,2,4-triazol-3-yl)sulfonyl)-N-methylpyrrolidine-3-carboxamide] and O=S(=O)(c1nnc(Nc2c3c(cc4c2CCC4)CCC3)[nH]1)C1CCOCC1 [Example 157, N-(1,2,3,5,6,7-hexahydro-s-indacen-4-yl)-5-((tetrahydro-2H-pyran-4-yl)sulfonyl)-4H-1,2,4-triazol-3-amine] cannot be ordered by IC50: at most 5 µM for the first, at most 10 µM for the second.

COc1cc(-c2cc(F)cc(C(C)C)c2Cc2nnc(S(=O)(=O)c3ccccc3)[nH]2)ccn1 [Example 155, 4-(5-fluoro-3-isopropyl-2-((5-(phenylsulfonyl)-4H-1,2,4-triazol-3-yl)-methyl)phenyl)-2-methoxypyridine] and COc1cc(-c2ccc3c(c2Cc2nnc(S(=O)(=O)N4CCC(CN(C)C)C4)[nH]2)CCC3)ccn1 (stereo not shown) [Example 160, 1-(1-((5-((5-(2-methoxypyridin-4-yl)-2,3-dihydro-1H-inden-4-yl)-methyl)-4H-1,2,4-triazol-3-yl)sulfonyl)pyrrolidin-3-yl)-N,N-dimethylmethanamine] cannot be ordered by IC50: at most 10 µM for the first, at most 5 µM for the second.

CN(C)CC1CCN(S(=O)(=O)c2nnc(Cc3c4c(cc5c3CCC5)CCC4)[nH]2)C1 (stereo not shown) [Example 158, 1-(1-((5-((1,2,3,5,6,7-hexahydro-s-indacen-4-yl)methyl)-4H-1,2,4-triazol-3-yl)sulfonyl)pyrrolidin-3-yl)-N,N-dimethylmethanamine] and CC(C)c1cc(F)cc(C(C)C)c1Cc1nnc(S(=O)(=O)N2CCC(CN(C)C)C2)[nH]1 (stereo not shown) [Example 161, 1-(1-((5-(4-fluoro-2,6-diisopropylbenzyl)-4H-1,2,4-triazol-3-yl)-sulfonyl)pyrrolidin-3-yl)-N,N-dimethylmethanamine] cannot be ordered by IC50: at most 5 µM for the first, at most 5 µM for the second.

O=S(=O)(c1cccnn1)c1n[nH]c(Nc2c3c(cc4c2CCC4)CCC3)n1 [Example 167, N-(1,2,3,5,6,7-hexahydro-s-indacen-4-yl)-3-(pyridazin-3-ylsulfonyl)-1H-1,2,4-triazol-5-amine] and O=S(=O)(c1ccnnc1)c1n[nH]c(Nc2c3c(cc4c2CCC4)CCC3)n1 [Example 168, N-(1,2,3,5,6,7-hexahydro-s-indacen-4-yl)-3-(pyridazin-4-ylsulfonyl)-1H-1,2,4-triazol-5-amine] cannot be ordered by IC50: at most 5 µM for the first, at most 5 µM for the second.

O=S(=O)(c1cncnc1)c1n[nH]c(Nc2c3c(cc4c2CCC4)CCC3)n1 [Example 169, N-(1,2,3,5,6,7-hexahydro-s-indacen-4-yl)-3-(pyrimidin-5-ylsulfonyl)-1H-1,2,4-triazol-5-amine] and CN1Cc2ccc(S(=O)(=O)c3n[nH]c(Nc4c5c(cc6c4CCC6)CCC5)n3)cc2C1=O [Example 180, 6-((5-((1,2,3,5,6,7-hexahydro-s-indacen-4-yl)amino)-1H-1,2,4-triazol-3-yl)sulfonyl)-2-methylisoindolin-1-one] cannot be ordered by IC50: at most 10 µM for the first, at most 5 µM for the second.

O=S(=O)(c1ccncc1)c1nnc(Nc2c3c(cc4c2CCC4)CCC3)[nH]1 [Example 171, N-(1,2,3,5,6,7-hexahydro-s-indacen-4-yl)-5-(pyridin-4-ylsulfonyl)-4H-1,2,4-triazol-3-amine] and O=S(=O)(c1cccnc1)c1nnc(Nc2c3c(cc4c2CCC4)CCC3)[nH]1 [Example 177, N-(1,2,3,5,6,7-hexahydro-s-indacen-4-yl)-5-(pyridin-3-ylsulfonyl)-4H-1,2,4-triazol-3-amine] cannot be ordered by IC50: at most 5 µM for the first, at most 5 µM for the second.

CC(C)(O)c1cccc(S(=O)(=O)c2nnc(Nc3c4c(cc5c3CCC5)CCC4)[nH]2)c1 [Example 172, 2-(3-((5-((1,2,3,5,6,7-hexahydro-s-indacen-4-yl)amino)-4H-1,2,4-triazol-3-yl)sulfonyl)phenyl)propan-2-ol] and Cc1cccc(S(=O)(=O)c2nnc(Nc3c4c(cc5c3CCC5)CCC4)[nH]2)c1 [Example 174, N-(1,2,3,5,6,7-hexahydro-s-indacen-4-yl)-5-(m-tolylsulfonyl)-4H-1,2,4-triazol-3-amine] cannot be ordered by IC50: at most 1 µM for the first, at most 5 µM for the second.

COc1ccccc1S(=O)(=O)c1nnc(Nc2c3c(cc4c2CCC4)CCC3)[nH]1 [Example 173, N-(1,2,3,5,6,7-hexahydro-s-indacen-4-yl)-5-((2-methoxyphenyl)sulfonyl)-4H-1,2,4-triazol-3-amine] and N#Cc1ccccc1S(=O)(=O)c1nnc(Nc2c3c(cc4c2CCC4)CCC3)[nH]1 [Example 185, 2-((5-((1,2,3,5,6,7-hexahydro-s-indacen-4-yl)amino)-4H-1,2,4-triazol-3-yl)sulfonyl)benzonitrile] cannot be ordered by IC50: at most 1 µM for the first, at most 0.5 µM for the second.

COc1cccc(S(=O)(=O)c2nnc(Nc3c4c(cc5c3CCC5)CCC4)[nH]2)c1 [Example 175, N-(1,2,3,5,6,7-hexahydro-s-indacen-4-yl)-5-((3-methoxyphenyl)sulfonyl)-4H-1,2,4-triazol-3-amine] and O=S(=O)(c1cccc(F)c1)c1nnc(Nc2c3c(cc4c2CCC4)CCC3)[nH]1 [Example 178, 5-((3-fluorophenyl)sulfonyl)-N-(1,2,3,5,6,7-hexahydro-s-indacen-4-yl)-4H-1,2,4-triazol-3-amine] cannot be ordered by IC50: at most 5 µM for the first, at most 5 µM for the second.

O=S(=O)(c1ccc(F)cc1)c1nnc(Nc2c3c(cc4c2CCC4)CCC3)[nH]1 [Example 181, 5-((4-fluorophenyl)sulfonyl)-N-(1,2,3,5,6,7-hexahydro-s-indacen-4-yl)-4H-1,2,4-triazol-3-amine] and Cc1ccc(S(=O)(=O)c2nnc(Nc3c4c(cc5c3CCC5)CCC4)[nH]2)cc1 [Example 182, N-(1,2,3,5,6,7-hexahydro-s-indacen-4-yl)-5-tosyl-4H-1,2,4-triazol-3-amine] cannot be ordered by IC50: at most 5 µM for the first, at most 5 µM for the second.

COc1ccc(S(=O)(=O)c2nnc(Nc3c4c(cc5c3CCC5)CCC4)[nH]2)cc1 [Example 183, N-(1,2,3,5,6,7-hexahydro-s-indacen-4-yl)-5-((4-methoxyphenyl)sulfonyl)-4H-1,2,4-triazol-3-amine] and N#Cc1ccc(S(=O)(=O)c2nnc(Nc3c4c(cc5c3CCC5)CCC4)[nH]2)cc1 [Example 184, 4-((5-((1,2,3,5,6,7-hexahydro-s-indacen-4-yl)amino)-4H-1,2,4-triazol-3-yl)sulfonyl)benzonitrile] cannot be ordered by IC50: at most 5 µM for the first, at most 5 µM for the second.
